SMILES strings stand for the structures. Activity calls are given as the source filed them.

From ChEMBL document CHEMBL1201862, “PubChem BioAssay data set” (2004) come the findings set out here.

Common to all, as to format: functional
In one assay the target is SUMO-activating enzyme (Homo sapiens, UniProt Q9UBT2). Description: SUMOylation inhibitor hit validation, confirmation, SUMOylation inhibitor project, biochemical, AlphaScreen (AID 2018).
The next assay concerns the target PglD (Campylobacter jejuni, UniProt O86157). Description: PglD acetyltransferase inhibitors, dose response, biochemical, DTNB absorbance, cherry-picked samples, set 2 (AID 624257).
In the next assay the target is T1, Hexokinase HKDC1 (Homo sapiens, UniProt Q2TB90).
T1 sequence (Q2TB90 whole entry): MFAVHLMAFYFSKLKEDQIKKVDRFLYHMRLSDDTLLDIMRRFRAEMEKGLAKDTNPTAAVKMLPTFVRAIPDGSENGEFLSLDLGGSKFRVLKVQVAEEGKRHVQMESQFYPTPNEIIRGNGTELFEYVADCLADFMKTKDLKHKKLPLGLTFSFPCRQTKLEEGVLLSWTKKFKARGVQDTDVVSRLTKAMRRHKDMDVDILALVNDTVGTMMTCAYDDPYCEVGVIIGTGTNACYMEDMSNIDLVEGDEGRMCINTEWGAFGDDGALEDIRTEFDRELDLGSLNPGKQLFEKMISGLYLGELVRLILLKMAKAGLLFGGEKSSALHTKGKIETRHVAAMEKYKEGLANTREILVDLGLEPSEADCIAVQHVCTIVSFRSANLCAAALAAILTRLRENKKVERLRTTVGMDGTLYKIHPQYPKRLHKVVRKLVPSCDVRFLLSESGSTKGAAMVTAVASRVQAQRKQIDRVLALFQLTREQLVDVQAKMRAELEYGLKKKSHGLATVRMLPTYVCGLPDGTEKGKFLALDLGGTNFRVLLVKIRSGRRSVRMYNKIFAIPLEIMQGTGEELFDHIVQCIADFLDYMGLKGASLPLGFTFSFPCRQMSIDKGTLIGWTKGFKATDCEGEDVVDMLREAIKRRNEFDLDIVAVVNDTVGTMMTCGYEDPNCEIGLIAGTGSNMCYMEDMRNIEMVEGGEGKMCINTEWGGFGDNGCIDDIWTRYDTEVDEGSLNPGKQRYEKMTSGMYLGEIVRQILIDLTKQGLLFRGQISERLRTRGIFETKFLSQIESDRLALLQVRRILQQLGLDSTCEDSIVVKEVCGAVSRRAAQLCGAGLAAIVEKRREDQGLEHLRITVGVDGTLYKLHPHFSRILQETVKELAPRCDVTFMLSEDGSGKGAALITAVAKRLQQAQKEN
Description: HKDC1 hexokinase inhibitors, dose response, biochemical, W721R variant (AID 504729).

The target of another assay is T2, Protein RecA (Mycobacterium tuberculosis, UniProt P9WHJ3).
T2 sequence (P9WHJ3 whole entry): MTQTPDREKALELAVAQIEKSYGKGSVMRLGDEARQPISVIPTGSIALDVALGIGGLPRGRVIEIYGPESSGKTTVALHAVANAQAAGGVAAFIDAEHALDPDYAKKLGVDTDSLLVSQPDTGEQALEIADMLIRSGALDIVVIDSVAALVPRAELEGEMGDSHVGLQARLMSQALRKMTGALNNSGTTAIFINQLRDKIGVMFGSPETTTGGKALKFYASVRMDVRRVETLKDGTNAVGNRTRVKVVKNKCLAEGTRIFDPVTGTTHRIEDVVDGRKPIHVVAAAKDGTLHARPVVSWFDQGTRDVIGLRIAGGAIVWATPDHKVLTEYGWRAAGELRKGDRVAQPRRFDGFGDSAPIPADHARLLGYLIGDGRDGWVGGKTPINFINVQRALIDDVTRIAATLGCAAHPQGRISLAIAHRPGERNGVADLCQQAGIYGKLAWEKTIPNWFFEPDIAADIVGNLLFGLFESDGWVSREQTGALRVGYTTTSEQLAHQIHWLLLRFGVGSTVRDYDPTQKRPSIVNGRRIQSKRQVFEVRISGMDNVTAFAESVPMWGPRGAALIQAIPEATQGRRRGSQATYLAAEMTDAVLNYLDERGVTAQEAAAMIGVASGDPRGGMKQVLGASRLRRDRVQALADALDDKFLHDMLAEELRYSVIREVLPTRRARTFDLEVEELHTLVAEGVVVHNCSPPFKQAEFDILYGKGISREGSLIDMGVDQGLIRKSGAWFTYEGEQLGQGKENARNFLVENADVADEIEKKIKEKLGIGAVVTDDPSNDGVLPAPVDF
Description: Fluorescence Cell-Free Homogeneous Dose Retest to Identify Inhibitors of RecA-Intein Splicing Activity. [Related pubchem assays (depositor defined):AID2097, AID2223, AID489010, AID492950].

The target in assay [1] is Glycogen synthase kinase-3 beta (Homo sapiens, UniProt P49841).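 Note: value comes from a broad kinome profiling panel, with GSK3B as the panel member.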
Assay [2] deals with cAMP-dependent protein kinase catalytic subunit alpha (Homo sapiens, UniProt P17612).
The target of assay [3] is Dual specificity tyrosine-phosphorylation-regulated kinase 1A (Homo sapiens, UniProt Q13627).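 Note: measured against DYRK1A as one member of a broad kinome profiling panel.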
Assay [4] has as its target Protein kinase C zeta type (Homo sapiens, UniProt Q05513).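 Note: measured as one member of a broad kinase profiling panel.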
The target of assay [5] is Tyrosine-protein kinase Lck (Homo sapiens, UniProt P06239).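 Note: lck was assayed as one member of a kinase panel.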
Sequence of Tyrosine-protein kinase Lck (P06239 whole entry): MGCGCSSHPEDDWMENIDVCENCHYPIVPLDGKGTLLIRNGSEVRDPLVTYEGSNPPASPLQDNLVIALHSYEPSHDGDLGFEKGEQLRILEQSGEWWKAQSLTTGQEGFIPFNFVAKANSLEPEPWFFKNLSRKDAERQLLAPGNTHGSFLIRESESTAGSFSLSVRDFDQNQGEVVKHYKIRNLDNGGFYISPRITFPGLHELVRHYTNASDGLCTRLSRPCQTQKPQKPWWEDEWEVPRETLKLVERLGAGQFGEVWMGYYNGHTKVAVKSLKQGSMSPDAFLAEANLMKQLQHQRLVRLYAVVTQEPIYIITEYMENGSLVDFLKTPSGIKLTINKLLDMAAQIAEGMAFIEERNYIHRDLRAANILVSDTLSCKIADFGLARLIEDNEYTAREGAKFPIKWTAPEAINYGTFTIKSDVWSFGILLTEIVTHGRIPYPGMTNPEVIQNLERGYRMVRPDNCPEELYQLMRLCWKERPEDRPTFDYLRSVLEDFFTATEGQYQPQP
In assay [6] the target is Serine/threonine-protein kinase PLK1 (Homo sapiens, UniProt P53350).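 Note: PLK1 measured as one member of a kinome-wide profiling panel.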
Sequence of Serine/threonine-protein kinase PLK1 (P53350 whole entry): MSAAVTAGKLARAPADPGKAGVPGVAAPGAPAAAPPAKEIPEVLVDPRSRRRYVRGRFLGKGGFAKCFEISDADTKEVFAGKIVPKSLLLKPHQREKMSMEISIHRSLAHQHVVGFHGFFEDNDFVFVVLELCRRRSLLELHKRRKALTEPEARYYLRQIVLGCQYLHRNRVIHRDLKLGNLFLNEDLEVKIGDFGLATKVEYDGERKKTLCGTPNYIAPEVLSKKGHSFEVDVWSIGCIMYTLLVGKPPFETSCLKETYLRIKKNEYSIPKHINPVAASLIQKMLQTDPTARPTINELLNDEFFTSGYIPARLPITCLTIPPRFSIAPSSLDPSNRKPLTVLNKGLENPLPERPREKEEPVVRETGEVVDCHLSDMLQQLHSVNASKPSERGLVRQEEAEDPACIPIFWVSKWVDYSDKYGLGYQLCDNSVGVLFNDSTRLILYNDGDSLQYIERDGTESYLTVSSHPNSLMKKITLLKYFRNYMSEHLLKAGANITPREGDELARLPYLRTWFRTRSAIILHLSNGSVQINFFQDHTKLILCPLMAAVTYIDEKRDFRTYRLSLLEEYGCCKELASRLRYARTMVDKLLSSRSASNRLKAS
For assay [7], the target named is Cyclin-dependent kinase 8 (Homo sapiens, UniProt P49336). Kind of assay: Navigating the Kinome. Panel member name: CDK8.
Assay [8] addresses Ribosomal protein S6 kinase alpha-5 (Homo sapiens, UniProt O75582).
Assay [9] has as its target Cell division cycle 7-related protein kinase (Homo sapiens, UniProt O00311).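 Note: value obtained from a kinome-wide kinase panel.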
The target in assay [10] is Homeodomain-interacting protein kinase 4 (Homo sapiens, UniProt Q8NE63).
In a further assay the target is Focal adhesion kinase 1 (Homo sapiens, UniProt Q05397).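 Note: measured as one member of a kinome panel.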
Sequence of Focal adhesion kinase 1 (Q05397 whole entry): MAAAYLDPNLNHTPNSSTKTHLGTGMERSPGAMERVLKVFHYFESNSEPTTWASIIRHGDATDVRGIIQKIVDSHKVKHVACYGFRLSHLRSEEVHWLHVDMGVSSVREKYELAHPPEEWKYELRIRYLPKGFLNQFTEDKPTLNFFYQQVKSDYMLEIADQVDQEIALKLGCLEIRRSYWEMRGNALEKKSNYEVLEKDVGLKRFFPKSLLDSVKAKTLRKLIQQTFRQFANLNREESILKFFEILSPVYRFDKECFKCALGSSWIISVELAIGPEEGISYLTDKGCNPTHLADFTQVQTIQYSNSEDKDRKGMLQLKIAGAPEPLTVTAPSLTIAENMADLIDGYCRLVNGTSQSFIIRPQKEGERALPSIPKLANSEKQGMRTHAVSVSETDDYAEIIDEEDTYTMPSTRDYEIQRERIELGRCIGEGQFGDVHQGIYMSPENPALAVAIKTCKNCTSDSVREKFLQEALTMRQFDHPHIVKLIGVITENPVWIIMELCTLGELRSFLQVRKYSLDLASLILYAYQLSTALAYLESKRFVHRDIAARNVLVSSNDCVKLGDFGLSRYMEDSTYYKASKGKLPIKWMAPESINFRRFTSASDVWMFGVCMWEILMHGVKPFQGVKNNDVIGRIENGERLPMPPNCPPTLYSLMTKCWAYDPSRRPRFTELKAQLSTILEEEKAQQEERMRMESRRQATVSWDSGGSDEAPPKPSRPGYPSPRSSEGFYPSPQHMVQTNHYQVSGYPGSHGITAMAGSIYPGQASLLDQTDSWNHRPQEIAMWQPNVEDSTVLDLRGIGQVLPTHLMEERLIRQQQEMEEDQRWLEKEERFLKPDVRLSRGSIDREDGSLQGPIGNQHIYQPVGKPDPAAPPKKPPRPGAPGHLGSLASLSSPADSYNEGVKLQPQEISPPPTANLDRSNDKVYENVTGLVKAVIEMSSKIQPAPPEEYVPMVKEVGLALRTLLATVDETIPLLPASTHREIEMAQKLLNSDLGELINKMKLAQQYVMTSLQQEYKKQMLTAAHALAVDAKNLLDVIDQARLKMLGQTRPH
For assay [11], the target named is Rho-associated protein kinase 2 (Homo sapiens, UniProt O75116).
The target of assay [12] is Proto-oncogene tyrosine-protein kinase ROS (Homo sapiens, UniProt P08922).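 Note: ROS1 tested as one member of a kinome-wide kinase panel.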
Assay [13] concerns the target Vascular endothelial growth factor receptor 1 (Homo sapiens, UniProt P17948).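 Note: measured within a kinome-wide profiling panel, FLT1 as the panel member.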
For assay [14], the target named is Calcium/calmodulin-dependent protein kinase type II subunit gamma (Homo sapiens, UniProt Q13555).
Assay [15] deals with Calcium/calmodulin-dependent protein kinase type II subunit delta (Homo sapiens, UniProt Q13557).
Assay [16] addresses MAP kinase-activated protein kinase 5 (Homo sapiens, UniProt Q8IW41).

Sequence of PglD (O86157 whole entry): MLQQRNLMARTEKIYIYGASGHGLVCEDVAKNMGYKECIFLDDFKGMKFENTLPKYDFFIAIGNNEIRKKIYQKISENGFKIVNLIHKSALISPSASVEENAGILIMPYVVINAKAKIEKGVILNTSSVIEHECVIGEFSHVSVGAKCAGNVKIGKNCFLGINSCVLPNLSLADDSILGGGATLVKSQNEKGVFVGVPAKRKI
Sequence of SUMO-activating enzyme (Q9UBE0 whole entry): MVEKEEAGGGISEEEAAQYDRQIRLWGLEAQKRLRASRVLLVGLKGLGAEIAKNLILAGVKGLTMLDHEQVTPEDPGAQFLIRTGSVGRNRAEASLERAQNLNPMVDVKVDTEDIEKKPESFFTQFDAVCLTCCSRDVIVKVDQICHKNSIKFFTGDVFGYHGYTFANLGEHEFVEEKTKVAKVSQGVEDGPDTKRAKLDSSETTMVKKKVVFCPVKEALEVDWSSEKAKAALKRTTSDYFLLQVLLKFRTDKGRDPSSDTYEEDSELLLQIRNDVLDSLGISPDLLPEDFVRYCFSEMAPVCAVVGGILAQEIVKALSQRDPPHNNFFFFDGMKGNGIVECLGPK
Sequence of SUMO-activating enzyme (Q9UBT2 whole entry): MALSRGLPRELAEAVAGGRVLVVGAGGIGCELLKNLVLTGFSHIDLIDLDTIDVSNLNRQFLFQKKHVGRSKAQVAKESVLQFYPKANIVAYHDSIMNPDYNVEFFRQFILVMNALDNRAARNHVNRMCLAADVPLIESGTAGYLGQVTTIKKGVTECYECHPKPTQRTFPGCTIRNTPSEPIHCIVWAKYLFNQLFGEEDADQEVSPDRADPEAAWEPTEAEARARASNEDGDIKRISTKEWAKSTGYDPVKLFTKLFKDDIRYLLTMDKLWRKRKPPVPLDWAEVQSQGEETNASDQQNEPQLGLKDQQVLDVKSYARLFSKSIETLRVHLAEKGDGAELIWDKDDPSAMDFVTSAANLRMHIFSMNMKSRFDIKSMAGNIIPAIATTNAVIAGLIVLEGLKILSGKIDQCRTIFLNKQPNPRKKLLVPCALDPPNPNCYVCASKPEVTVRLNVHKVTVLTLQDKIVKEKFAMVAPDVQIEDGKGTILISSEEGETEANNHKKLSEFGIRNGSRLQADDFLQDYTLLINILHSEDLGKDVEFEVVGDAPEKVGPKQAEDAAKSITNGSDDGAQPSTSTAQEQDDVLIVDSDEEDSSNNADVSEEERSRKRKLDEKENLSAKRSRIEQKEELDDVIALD
Sequence of Vascular endothelial growth factor receptor 1 (P17948 whole entry): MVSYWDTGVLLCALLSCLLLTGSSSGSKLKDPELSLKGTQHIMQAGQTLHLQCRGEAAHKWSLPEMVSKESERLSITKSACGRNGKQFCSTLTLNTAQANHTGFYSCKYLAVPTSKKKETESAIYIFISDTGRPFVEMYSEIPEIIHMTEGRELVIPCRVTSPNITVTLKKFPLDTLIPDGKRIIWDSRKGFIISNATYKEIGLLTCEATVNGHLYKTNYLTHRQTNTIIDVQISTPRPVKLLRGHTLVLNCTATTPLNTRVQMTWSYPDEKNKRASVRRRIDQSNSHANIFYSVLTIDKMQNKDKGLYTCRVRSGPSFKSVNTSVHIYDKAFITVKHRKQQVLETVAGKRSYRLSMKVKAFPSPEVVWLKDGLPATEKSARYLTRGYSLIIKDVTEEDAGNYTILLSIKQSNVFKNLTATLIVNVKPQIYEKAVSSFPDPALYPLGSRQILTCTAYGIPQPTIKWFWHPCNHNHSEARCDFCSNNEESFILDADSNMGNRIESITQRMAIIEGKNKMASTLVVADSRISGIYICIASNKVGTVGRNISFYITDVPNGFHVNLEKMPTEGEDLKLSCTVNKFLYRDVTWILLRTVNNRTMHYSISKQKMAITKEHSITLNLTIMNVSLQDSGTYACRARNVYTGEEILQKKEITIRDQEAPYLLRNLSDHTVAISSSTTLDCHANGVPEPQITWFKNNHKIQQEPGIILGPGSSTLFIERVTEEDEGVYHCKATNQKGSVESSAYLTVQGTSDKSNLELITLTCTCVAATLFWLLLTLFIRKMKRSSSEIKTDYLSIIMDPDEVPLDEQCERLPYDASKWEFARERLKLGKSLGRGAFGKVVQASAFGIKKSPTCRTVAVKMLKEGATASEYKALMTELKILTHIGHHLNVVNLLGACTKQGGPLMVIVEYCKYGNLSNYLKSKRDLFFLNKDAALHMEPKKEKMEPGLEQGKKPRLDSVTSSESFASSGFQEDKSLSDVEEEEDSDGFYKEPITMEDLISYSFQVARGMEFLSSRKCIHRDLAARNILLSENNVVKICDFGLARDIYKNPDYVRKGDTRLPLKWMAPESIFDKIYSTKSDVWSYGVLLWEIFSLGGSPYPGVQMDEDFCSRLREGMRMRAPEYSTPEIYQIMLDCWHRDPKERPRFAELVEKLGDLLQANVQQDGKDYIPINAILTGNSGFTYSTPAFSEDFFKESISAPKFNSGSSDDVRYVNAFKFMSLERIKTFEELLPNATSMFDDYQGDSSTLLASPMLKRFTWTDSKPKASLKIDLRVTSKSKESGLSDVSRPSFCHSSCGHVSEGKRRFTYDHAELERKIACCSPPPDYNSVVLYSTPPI

The IC50 is the midpoint of a concentration-inhibition curve. Broadly, the AC50 is the concentration giving half of the maximal activity seen. A word on the EC50: it is the concentration at which the effect is half-maximal. For the molecule `CC(=O)NC1C(=O)N(CCN2CCOCC2)c2ccc(Cl)cc21` (stereo unspecified), the IC50 at SUMO-activating enzyme is 5.25 µM (active); at Hexokinase HKDC1, 6.75 µM (active). Besides, on PglD, the AC50 was 17.5 µM (active). For the same molecule, at Protein RecA, the EC50 was 10.5 µM (active).
By Ki is commonly meant the dissociation constant of the complex between target and ligand, obtained from inhibition or displacement. With `Cc1c(C=O)c(O)n2c(nc3ccccc32)c1C#N`, the Ki was 3.16 µM (active) in [1]; > 7.94 µM (inactive) in [2]; 0.501 µM (active) in assay [3]; > 7.94 µM (inactive) in assay [4]; > 2.51 µM (inactive) in assay [5]; 1.26 µM (active) in [6].
Consider `Cc1n[nH]c2cnc(-c3cncc(OCC(N)Cc4cccc(C(F)(F)F)c4)c3)cc12` (stereo unspecified), for which the Ki was 0.0126 µM (active) in assay [7]; 0.0794 µM (active) in assay [8]; 0.01 µM (active) in assay [9]; 0.0251 µM (active) in assay [10]; > 1.58 µM (inactive) at Focal adhesion kinase 1; 0.02 µM (active) in assay [11]. Besides, the Ki in assay [12] is 0.398 µM (active); in assay [13], > 0.398 µM (inactive); in [14] it was 0.01 µM (active); in assay [15], 0.00501 µM (active); in [16], > 1.58 µM (inactive).
